Where two headings read alike, the source gives them in different places.
System: SNU-C4 HiBiT-PXR KI cells
Assay: Cytotoxicity, CellTiter-Glo Luminescent Cell Viability Assay
Format: cell-based
Procedure: An Echo 655T Acoustic Liquid Handler was used to dispense 75 nL/well of DMSO or PROTAC dilution into white tissue culture-treated 384-well plates. For 24 h cytotoxicity, 25 μL assay media containing 1×10^4 cells was added to each well to match the conditions for the degradation assays. For 72 h cytotoxicity, 25 μL RPMI with 10% FBS containing 2.5×10^3 cells was added to each well to match normal growth conditions. […] After 24 h or 72 h, the CellTiter-Glo Luminescent Cell Viability Assay (Promega, cat. #G7572) and an EnVision microplate reader were used to assess cytotoxicity. DMSO wells with cells served as positive controls, and wells without cells served as negative controls. The percent cell viability for each well was calculated using equation 5,

[1] = read-out: 24 h CC50, Table 2, 24 h treatment
[2] = read-out: 72 h CC50, Table 2, 72 h treatment
[3] = read-out: 24 h CC50, Table 3, 24 h treatment
[4] = read-out: 72 h CC50, Table 3, 72 h treatment

SMILES	CC50 [1] [µM]	CC50 [2] [µM]	CC50 [3] [µM]	CC50 [4] [µM]
COc1ccc(OC)c(-n2nnc(C(=O)Nc3cc(OCCCCCCOCCOCC(=O)N[C@H](C(=O)N4C[C@H](O)C[C@H]4C(=O)NCc4ccc(-c5scnc5C)cc4)C(C)(C)C)cc(C(C)(C)C)c3)c2C)c1 [Compound 15, N-(3-(TERT-BUTYL)-5-((6-(2-(2-(((S)-1-((2S,4R)-4-HYDROXY-2-((4-(4-METHYLTHIAZOL-5 YL)BENZYL)CARBAMOYL)PYRROLIDIN-1-YL)-3,3-DIMETHYL-1-OXOBUTAN-2-YL)AMINO)-2-OXOETHOXY)ETHOXY)HEXYL)OXY)PHENYL)-1-(2,5-DIMETHOXYPHENYL)-5-METHYL-1H-1,2,3-TRIAZOLE-4-CARBOXAMIDE]	> 30	> 30	–	–
CCC[C@H](CC)Oc1ccc(C(=O)N[C@H](C(=O)N2C[C@H](O)C[C@H]2C(=O)NCc2ccc(-c3scnc3C)cc2)C(C)(C)C)cc1NC(=O)c1nnn(-c2cc(OC)ccc2OC)c1C [Compound 16]	> 30	> 30	–	–
CCC[C@H](CC)Oc1ccc(C(=O)NCCCCC(=O)N[C@H](C(=O)N2C[C@H](O)C[C@H]2C(=O)NCc2ccc(-c3scnc3C)cc2)C(C)(C)C)cc1NC(=O)c1nnn(-c2cc(OC)ccc2OC)c1C [Compound 17]	> 30	> 30	–	–
CCC[C@H](CC)Oc1ccc(C(=O)NCCOCCOCC(=O)N[C@H](C(=O)N2C[C@H](O)C[C@H]2C(=O)NCc2ccc(-c3scnc3C)cc2)C(C)(C)C)cc1NC(=O)c1nnn(-c2cc(OC)ccc2OC)c1C [Compound 18]	> 30	> 30	–	–
CCC[C@H](CC)Oc1ccc(C(=O)NCCCCCCCCC(=O)N[C@H](C(=O)N2C[C@H](O)C[C@H]2C(=O)NCc2ccc(-c3scnc3C)cc2)C(C)(C)C)cc1NC(=O)c1nnn(-c2cc(OC)ccc2OC)c1C [Compound 19]	> 30	> 30	–	–
CCC[C@H](CC)Oc1ccc(C(=O)NCCOCCOCCOCCOCC(=O)N[C@H](C(=O)N2C[C@H](O)C[C@H]2C(=O)NCc2ccc(-c3scnc3C)cc2)C(C)(C)C)cc1NC(=O)c1nnn(-c2cc(OC)ccc2OC)c1C [Compound 21]	> 30	> 30	–	–
COc1cc(OCC(=O)N[C@H](C(=O)N2C[C@H](O)C[C@H]2C(=O)NCc2ccc(-c3scnc3C)cc2)C(C)(C)C)c(C)cc1-n1nnc(S(=O)(=O)c2ccc(C(C)(C)C)cc2)c1C [Compound 22, (2S,4R)-1-((S)-2-(2-(4-(4-((4-(TERT-BUTYL)PHENYL)SULFONYL)-5-METHYL-1H-1,2,3-TRIAZOL-1-YL)-5-METHOXY-2-METHYLPHENOXY)ACETAMIDO)-3,3-DIMETHYLBUTANOYL)-4-HYDROXY-N-(4-(4-METHYLTHIAZOL-5 YL)BENZYL)PYRROLIDINE-2-CARBOXAMIDE]	–	–	> 30	> 30
COc1cc(OCCCC(=O)N[C@H](C(=O)N2C[C@H](O)C[C@H]2C(=O)NCc2ccc(-c3scnc3C)cc2)C(C)(C)C)c(C)cc1-n1nnc(S(=O)(=O)c2ccc(C(C)(C)C)cc2)c1C [Compound 23, (2S,4R)-1-((S)-2-(4-(4-(4-((4-(TERT-BUTYL)PHENYL)SULFONYL)-5-METHYL-1H-1,2,3-TRIAZOL-1-YL)-5-METHOXY-2-METHYLPHENOXY)BUTANAMIDO)-3,3-DIMETHYLBUTANOYL)-4-HYDROXY-N-(4-(4-METHYLTHIAZOL-5-YL)BENZYL)PYRROLIDINE-2-CARBOXAMIDE]	–	–	> 30	> 30
COc1cc(OCCOCCC(=O)N[C@H](C(=O)N2C[C@H](O)C[C@H]2C(=O)NCc2ccc(-c3scnc3C)cc2)C(C)(C)C)c(C)cc1-n1nnc(S(=O)(=O)c2ccc(C(C)(C)C)cc2)c1C [Compound 24, (2S,4R)-1-((S)-2-(3-(2-(4-(4-((4-(TERT-BUTYL)PHENYL)SULFONYL)-5-METHYL-1H-1,2,3-TRIAZOL-1-YL)-5-METHOXY-2-METHYLPHENOXY)ETHOXY)PROPANAMIDO)-3,3-DIMETHYLBUTANOYL)-4-HYDROXY-N-(4-(4-METHYLTHIAZOL-5-YL)BENZYL)PYRROLIDINE-2-CARBOXAMIDE]	–	–	> 30	> 30
COc1cc(OCCCCCCCC(=O)N[C@H](C(=O)N2C[C@H](O)C[C@H]2C(=O)NCc2ccc(-c3scnc3C)cc2)C(C)(C)C)c(C)cc1-n1nnc(S(=O)(=O)c2ccc(C(C)(C)C)cc2)c1C [Compound 25, (2S,4R)-1-((S)-2-(8-(4-(4-((4-(TERT-BUTYL)PHENYL)SULFONYL)-5-METHYL-1H-1,2,3-TRIAZOL-1-YL)-5-METHOXY-2-METHYLPHENOXY)OCTANAMIDO)-3,3-DIMETHYLBUTANOYL)-4-HYDROXY-N-(4-(4-METHYLTHIAZOL-5-YL)BENZYL)PYRROLIDINE-2-CARBOXAMIDE]	–	–	> 30	> 30
COc1cc(OCCOCCOCCC(=O)N[C@H](C(=O)N2C[C@H](O)C[C@H]2C(=O)NCc2ccc(-c3scnc3C)cc2)C(C)(C)C)c(C)cc1-n1nnc(S(=O)(=O)c2ccc(C(C)(C)C)cc2)c1C [Compound 26, (2S,4R)-1-((S)-2-(3-(2-(2-(4-(4-((4-(TERT-BUTYL)PHENYL)SULFONYL)-5-METHYL-1H-1,2,3-TRIAZOL-1-YL)-5-METHOXY-2-METHYLPHENOXY)ETHOXY)ETHOXY)PROPANAMIDO)-3,3-DIMETHYLBUTANOYL)-4-HYDROXY-N-(4-(4-METHYLTHIAZOL-5-YL)BENZYL)PYRROLIDINE-2-CARBOXAMIDE]	–	–	> 30	> 30
COc1cc(OCCOCCOCCOCCC(=O)N[C@H](C(=O)N2C[C@H](O)C[C@H]2C(=O)NCc2ccc(-c3scnc3C)cc2)C(C)(C)C)c(C)cc1-n1nnc(S(=O)(=O)c2ccc(C(C)(C)C)cc2)c1C [Compound 27, (2S,4R)-1-((S)-14-(TERT-BUTYL)-1-(4-(4-((4-(TERT-BUTYL)PHENYL)SULFONYL)-5-METHYL-1H-1,2,3-TRIAZOL-1-YL)-5-METHOXY-2-METHYLPHENOXY)-12-OXO-3,6,9-TRIOXA-13-AZAPENTADECAN-15-OYL)-4-HYDROXY-N-(4-(4-METHYLTHIAZOL-5-YL)BENZYL)PYRROLIDINE-2-CARBOXAMIDE]	–	–	> 30	> 30
COc1cc(OCCCCCCOCCOCC(=O)N[C@H](C(=O)N2C[C@H](O)C[C@H]2C(=O)NCc2ccc(-c3scnc3C)cc2)C(C)(C)C)c(C)cc1-n1nnc(S(=O)(=O)c2ccc(C(C)(C)C)cc2)c1C [Compound 28, (2S,4R)-1-((S)-2-(2-(2-((6-(4-(4-((4-(TERT-BUTYL)PHENYL)SULFONYL)-5-METHYL-1H-1,2,3-TRIAZOL-1-YL)-5-METHOXY-2-METHYLPHENOXY)HEXYL)OXY)ETHOXY)ACETAMIDO)-3,3-DIMETHYLBUTANOYL)-4-HYDROXY-N-(4-(4-METHYLTHIAZOL-5-YL)BENZYL)PYRROLIDINE-2-CARBOXAMIDE]	–	–	> 30	> 30
COc1cc(OCCOCCOCCOCCOCCC(=O)N[C@H](C(=O)N2C[C@H](O)C[C@H]2C(=O)NCc2ccc(-c3scnc3C)cc2)C(C)(C)C)c(C)cc1-n1nnc(S(=O)(=O)c2ccc(C(C)(C)C)cc2)c1C [Compound 29, (2S,4R)-1-((S)-17-(TERT-BUTYL)-1-(4-(4-((4-(TERT-BUTYL)PHENYL)SULFONYL)-5-METHYL-1H-1,2,3-TRIAZOL-1-YL)-5-METHOXY-2-METHYLPHENOXY)-15-OXO-3,6,9,12-TETRAOXA-16-AZAOCTADECAN-18-OYL)-4-HYDROXY-N-(4-(4-METHYLTHIAZOL-5-YL)BENZYL)PYRROLIDINE-2-CARBOXAMIDE]	–	–	> 30	> 30
COc1cc(OCC(=O)NCCOCCOCCOCCOCC(=O)N[C@H](C(=O)N2C[C@H](O)C[C@H]2C(=O)NCc2ccc(-c3scnc3C)cc2)C(C)(C)C)c(C)cc1-n1nnc(S(=O)(=O)c2ccc(C(C)(C)C)cc2)c1C [Compound 30, (2S,4R)-1-((S)-2-(TERT-BUTYL)-20-(4-(4-((4-(TERT-BUTYL)PHENYL)SULFONYL)-5-METHYL-1H-1,2,3-TRIAZOL-1-YL)-5-METHOXY-2-METHYLPHENOXY)-4,19-DIOXO-6,9,12,15-TETRAOXA-3,18-DIAZAICOSANOYL)-4-HYDROXY-N-(4-(4-METHYLTHIAZOL-5-YL)BENZYL)PYRROLIDINE-2-CARBOXAMIDE]	–	–	> 30	> 30
COc1cc(OCCOCCOCCOCCOCCOCCC(=O)N[C@H](C(=O)N2C[C@H](O)C[C@H]2C(=O)NCc2ccc(-c3scnc3C)cc2)C(C)(C)C)c(C)cc1-n1nnc(S(=O)(=O)c2ccc(C(C)(C)C)cc2)c1C [Compound 31, (2S,4R)-1-((S)-20-(TERT-BUTYL)-1-(4-(4-((4-(TERT-BUTYL)PHENYL)SULFONYL)-5-METHYL-1H-1,2,3-TRIAZOL-1-YL)-5-METHOXY-2-METHYLPHENOXY)-18-OXO-3,6,9,12,15-PENTAOXA-19-AZAHENICOSAN-21-OYL)-4-HYDROXY-N-(4-(4-METHYLTHIAZOL-5-YL)BENZYL)PYRROLIDINE-2-CARBOXAMIDE]	–	–	> 30	> 30
COc1cc(OCCCCCCOCCCCCOCCCCCC(=O)N[C@H](C(=O)N2C[C@H](O)C[C@H]2C(=O)NCc2ccc(-c3scnc3C)cc2)C(C)(C)C)c(C)cc1-n1nnc(S(=O)(=O)c2ccc(C(C)(C)C)cc2)c1C [Compound 32, (2S,4R)-1-((S)-2-(6-((5-((6-(4-(4-((4-(tert-Butyl)phenyl)sulfonyl)-5-methyl-1H-1,2,3-triazol-1-yl)-5-methoxy-2-methylphenoxy)hexyl)oxy)pentyl)oxy)hexanamido)-3,3-dimethylbutanoyl)-4-hydroxy-N-(4-(4-methylthiazol-5-yl)benzyl)pyrrolidine-2-carboxamide]	–	–	> 30	> 30
COc1cc(OCCCCCCOCCOCCOCCCCCC(=O)N[C@H](C(=O)N2C[C@H](O)C[C@H]2C(=O)NCc2ccc(-c3scnc3C)cc2)C(C)(C)C)c(C)cc1-n1nnc(S(=O)(=O)c2ccc(C(C)(C)C)cc2)c1C [Compound 33, (2S,4R)-1-((S)-2-(tert-Butyl)-22-(4-(4-((4-(tert-butyl)phenyl)sulfonyl)-5-methyl-1H-1,2,3-triazol-1-yl)-5-methoxy-2-methylphenoxy)-4-oxo-10,13,16-trioxa-3-azadocosanoyl)-4-hydroxy-N-(4-(4-methylthiazol-5-yl)benzyl)pyrrolidine-2-carboxamide]	–	–	> 30	> 30

Source: patent US12516051B1, “Small molecule degraders and fluorescent probes of PXR” (St. Jude Children's Research Hospital, Inc., priority 2024, dated 2026)
